Assay results published in patent US20180014536A1, “AGENT FOR IMPROVING PLANT GROWTH AND METHOD FOR PRODUCING PLANT USING SAME” (FUSO CHEMICAL CO., LTD., priority 2015, published 2018).
“And” between values parts separate entries of the source, which are not always exact repeats. Equal values may be shown once.

Key:
radish sprouts [1] = experiment: Verification experiment 5: alkaline stress (potassium hydroxide); details: leaf spray, then immersed in pH 9.0 solution
Source text: Next, by use of radish sprouts, a resistance to alkaline stress caused by potassium hydroxide was investigated.
Zerumbone was sprayed onto the leaf surfaces of the cotyledons of radish sprouts seedlings three to four days after germination, and the seedlings were then cultivated for several days. Meanwhile, only water was sprayed onto the leaf surfaces of another radish sprouts seedlings, and the seedlings were then cultivated for several days. The radish sprouts seedlings thus cultivated were immersed in a pH 9.0 acid solution.

leaf lettuce = experiment: Verification experiment 13: hydroponics test on leaf lettuce in vinyl greenhouse in summer; format: in vivo
radish sprouts [2] = experiment: Verification experiment 4: acid stress (nitric acid); details: leaf spray, then immersed in pH 2.5 acid solution for one minute
Source text: By use of radish sprouts, a resistance to acid stress caused by nitric acid was investigated.
Zerumbone was sprayed onto the leaf surfaces of the cotyledons of radish sprouts seedlings three to four days after germination, and the seedlings were then cultivated for several days. Meanwhile, only water was sprayed onto the leaf surfaces of another radish sprouts seedlings, and the seedlings were then cultivated for several days. The radish sprouts seedlings thus cultivated were immersed in a pH 2.5 acid solution for one minute.

cucumber [3] = experiment: Verification experiment 3: high temperature stress, soil culture; format: in vivo; details: leaf spray on cotyledons, 10 days cultivation
Procedure: Next, an experiment was conducted to confirm effectiveness of the agent in soil culture of cucumber. First, seeds of cucumber were sown in culture soil thrown into 15 cm-pots (size-5 pots) such that the seeds have spaces therebetween. The culture soil contains, as fertilizer components, 180 mg/L of nitrogen, 120 mg/L of phosphoric acid, and 220 mg/L of potassium. The soil was adjusted at pH 6.0. Watering was performed every early morning. […] A growth difference was observed therebetween.

cucumber [4] = experiment: Verification experiment 12: salt stress, TTC test; format: in vivo; details: cut leaves immersed in 1.0% saline water for 24 hours
Japanese mustard spinach [5] = experiment: Verification experiment 2: high temperature stress, hydroponics, plenty of sunlight (second time-A)
autumn fern [6] = experiment: Verification experiment 15: organic acid stress, Pteridophyta, TTC test; format: in vivo; details: cut leaves immersed in 0.4% acetic acid solution for three hours
Japanese mustard spinach [7] = experiment: Verification experiment 1: high temperature stress, hydroponics (first time); format: in vivo; details: first time
Procedure: In order to confirm that the above substances have an efficacy such as alleviation of the various stresses on a plant or promotion of plant growth, some verification experiments were conducted. In each of the verification experiments, solutions of the above substances were used. A concentration thereof was in a range from 0.01 ppm to 10 ppm, in order to exert a sufficient efficacy on a plant. This concentration was appropriately adjusted for each verification experiment. For comparison, similar verification experiments using sanguinarine were conducted. In such a verification experiment for an identical purpose to the above, a concentration of sanguinarine was set to be identical to those of the above substances. A verification experiment for high temperature stress was conducted by use of Japanese mustard spinach. The experiment was conducted in the following procedures. […] Note that the agent used was zerumbone.

radish sprouts [8] = experiment: Verification experiment 7: recovering from dry stress; format: in vivo; details: among the four samples; sprayed, dried one night, replanted
Source text: Next, radish sprouts seedlings were dried so that the radish sprouts seedlings were severely damaged. Subsequently, adequate water was given to the radish sprouts seedlings. Thus, whether or not the radish sprouts seedlings could be recovered from the damage was verified. First, radish sprouts were immersed in water during night so that germination thereof was promoted. After germination, radish sprouts seedlings planted in vermiculite were impregnated in a nutrient fluid of the Ensi formulation. The radish sprouts seedlings were cultured at 25° C. for five days. A light period during the culture was six hours. Then, zerumbone was sprayed to the radish sprouts seedlings. Meanwhile, water was sprayed to samples used as a control. These radish sprouts seedlings were cultured for one more day. Thereafter, the roots thereof were washed so that the vermiculite was removed therefrom. Then, the roots were wiped with a paper towel. The radish sprouts seedlings were then arranged on a tray, and were dried for one night. The radish sprouts seedlings thus dried were planted in culture soil obtained by blending leaf soil and […] soil in a ratio of 4:6 in a pot.

cucumber [9] = experiment: Verification experiment 8: low temperature stress, TTC test; format: in vivo
autumn fern [10] = experiment: Verification experiment 14: high temperature stress, Pteridophyta, TTC test; format: in vivo; details: cut leaves immersed in tap water of 45° C. for 18 hours
Procedure: As a Pteridophyta, autumn fern was used, which is a representative Pteridophyta often found in, […] bright forest. Verification experiments for various stresses were conducted thereon. The experiments were conducted in the following procedures. […] Meanwhile, the leaf surfaces of the control sample were sprayed only with water. After the spraying onto the leaf surfaces, the autumn fern seedlings were cultivated at 25° C. for one day. The leaves were cut in a suitable size, and were then subjected to various stresses. Then, cell activities of the samples were determined by TTC test. The leaves that were cut in the suitable size were immersed in tap water of 45° C. for 18 hours. On such leaves, TTC test was conducted.

cucumber [11] = experiment: Verification experiment 6: dry stress; format: in vivo
Procedure: By use of cucumber, a resistance to dry stress was investigated. 3 ml of Zerumbone was added to cucumber seedlings immediately after germination. The cucumber seedlings were cultivated for 18 days. Meanwhile, another cucumber seedlings were cultivated for 18 days without Zerumbone added thereto. Throughout the cultivation period, a minimum amount of water was given and watering was conducted a minimum number of times so that the soil surface was always kept dry. […] A weight of each of the seedlings was measured. […] Note that, except for the agent, the cultivation conditions used were identical to those of the case where zerumbone was used.

racomitrium moss [12] = experiment: Verification experiment 19: ammonia stress, Bryophyta, TTC test; format: in vivo; details: samples immersed in 1.0% ammonia solution for 48 hours
Japanese mustard spinach [13] = experiment: Verification experiment 2: high temperature and low sunshine stress, hydroponics (second time-B)
cucumber [14] = experiment: Verification experiment 10: ammonia stress, TTC test; format: in vivo; details: cut leaves immersed in 1.0% ammonia solution for three hours
racomitrium moss [15] = experiment: Verification experiment 17: high temperature stress, Bryophyta, TTC test; format: in vivo; details: samples immersed in tap water of 45° C. for 18 hours
Procedure: As a Bryophyta, racomitrium moss was used, which is a Bryophyta widely used for greening a park, a rooftop, and a garden. Verification experiments for various stresses were conducted thereon. The experiments were conducted in the following procedures. […] Meanwhile, the control sample was sprayed only with water. After the spraying, the racomitrium mosses were cultivated at 25° C. for one day. Then, the samples were subjected to various stresses. Thus, cell activities of the samples were determined by TTC test. […] On such samples, TTC test was conducted.

cucumber [16] = experiment: Verification experiment 11: ultraviolet ray stress, TTC test; format: in vivo; details: cut leaves irradiated with ultraviolet ray for 24 hours
racomitrium moss [17] = experiment: Verification experiment 18: organic acid stress, Bryophyta, TTC test; format: in vivo; details: samples immersed in 0.4% acetic acid solution for three hours
autumn fern [18] = experiment: Verification experiment 16: ammonia stress, Pteridophyta, TTC test; format: in vivo; details: cut leaves immersed in 1.0% ammonia solution for 48 hours
cucumber [19] = experiment: Verification experiment 9: organic acid stress, TTC test; format: in vivo; details: cut leaves immersed in 0.4% acetic acid solution for two hours
[20] = leaf lettuce, summer greenhouse hydroponics
[21] = leaf lettuce, summer greenhouse hydroponics, listed as zerumbone

C/C1=C\CC(C)(C)/C=C/C(=O)/C(C)=C/CC1 [Zerumbone, zerumbone]
resistance to alkaline stress (withering) (radish sprouts [1]): gives a plant resistance to both acid and alkali
Growing speed: Harvest timing (leaf lettuce; day on which harvest size reached 150 g to 180 g): 30th day after day after germination
Disease resistance: Powdery mildew (leaf lettuce; [20]): Not occurred
Disease resistance: Root rot (leaf lettuce; [20]): Not occurred
Physiological disorder (quality): Heterophyll (leaf lettuce; [20]): Not occurred
Physiological disorder (quality): Root spread condition (leaf lettuce; [20]): Very good
Physiological disorder (quality): Taste (leaf lettuce; [20]): No bitterness
Physiological disorder (quality): Tip burn (dead fringes of leaf) (leaf lettuce; [20]): Not occurred
Physiological disorder (quality): Unproductive growth (leaf lettuce; [20]): Not occurred
occurrence of a disease (overall) (leaf lettuce; [20]): occurrence of a disease was not observed
physiological disorder (overall) (leaf lettuce; [20]): no physiological disorder occurred
Physiological disorder (quality): Root spread condition (leaf lettuce; [21]): far better than in the sanguinarine test section
Physiological disorder (quality): Taste (leaf lettuce; [21]): no bitterness
withering of seedlings (radish sprouts [2]): Slight withering was observed in some portions
growth of cucumber seedlings (FIG. 1) (cucumber [3]): grown greatly
cells alive (TTC test) (cucumber [4]): most of the cells
weights greater than those of the control samples (Japanese mustard spinach [5]; Table 2 experiment): approximately 17%
Growth ratio (%) (Japanese mustard spinach [5]; control = 100.0, second time-A): 116.7%
Weight of 10 samples (Japanese mustard spinach [5]; dry weight of 10 seedlings, nine days, 30-43 °C, plenty of sunlight, second time-A): 2.120 g and 2.176 g and 2.213 g and 2.298 g
Average (Japanese mustard spinach [5]; second time-A): 2.202 g
TTC test dyeing (cell activity) (autumn fern [6]): dyed slightly
Average (Japanese mustard spinach [7]; average weight of 10 samples): 1.760 g
weights greater than those of the control samples (Japanese mustard spinach [7]; average weights compared): approximately 15%
Growth ratio (%) (Japanese mustard spinach [7]; control = 100.0): 115.4%
Weight of 10 samples (Japanese mustard spinach [7]; dry weight of 10 seedlings, leaf spray, nine days culture, maximum temperature 30-43 °C, plenty of sunlight): 1.729 g and 1.732 g and 1.787 g and 1.792 g
samples recovered from the dry state (radish sprouts [8]): three
TTC test dyeing (cell activity) (cucumber [9]; cut leaves left two days in dark place at 0° C.): dyed deeply
TTC test dyeing (cell activity) (cucumber [9]; cut leaves left two days in dark place at −10° C.): dyed slightly
TTC test dyeing of leaves (cell activity) (cucumber [9]; remaining plants cultivated two days under fluorescent lamp at 4° C.): dyed deeply except for their peripheries
TTC test dyeing (cell activity) (autumn fern [10]): dyed slightly
average weight greater than the control samples (cucumber [11]; 18 days dry stress): approximately 13%
growth compared with control (FIG. 2) (cucumber [11]; after 18-day cultivation under dry stress): grew more greatly than the control
Average (cucumber [11]; average seedling weight after 18 days dry stress): 3.00 g
Weight comparison (%) (cucumber [11]; control = 100.0): 113.0%
TTC test dyeing (cell activity) (racomitrium moss [12]): dyed slightly
growth better than the growth of the control samples (Japanese mustard spinach [13]; Table 3 experiment, almost no sunlight): approximately 37%
Growth ratio (%) (Japanese mustard spinach [13]; control = 100.0, second time-B): 136.5%
Weight of 10 samples (Japanese mustard spinach [13]; dry weight of 10 seedlings, nine days, 30-43 °C, almost no sunlight, second time-B): 2.137 g and 2.163 g
Average (Japanese mustard spinach [13]; second time-B): 2.150 g
cells having an activity (TTC test) (cucumber [14]): a part of the cells
TTC test dyeing (cell activity) (racomitrium moss [15]): dyed slightly
cells having an activity (TTC test) (cucumber [16]): approximately half of the cells
TTC test dyeing (cell activity) (racomitrium moss [17]): dyed slightly
TTC test dyeing (cell activity) (autumn fern [18]): dyed slightly
cells having an activity (TTC test) (cucumber [19]): approximately half of the cells
